Patent US11584714B2 (priority 2018, dated 2023)
Counter-ions that a name gives are not always drawn. Like-named read-outs stand apart in the source and are kept apart here.

Experiments:
Type in all cases: biochemical
[1] = biological target: human α-thrombin (Homo sapiens (Human), UniProt P00734); test: Enzymatic assay for thrombin (Boc-VPR-AMC substrate)
[2] = biological target: mMASP-2 (Mus musculus (Mouse), UniProt Q91WP0); test: Enzymatic inhibition of mMASP-2; details: read-out: mMASP-2 Ki
Sequence of mMASP-2 (Q91WP0 20-685): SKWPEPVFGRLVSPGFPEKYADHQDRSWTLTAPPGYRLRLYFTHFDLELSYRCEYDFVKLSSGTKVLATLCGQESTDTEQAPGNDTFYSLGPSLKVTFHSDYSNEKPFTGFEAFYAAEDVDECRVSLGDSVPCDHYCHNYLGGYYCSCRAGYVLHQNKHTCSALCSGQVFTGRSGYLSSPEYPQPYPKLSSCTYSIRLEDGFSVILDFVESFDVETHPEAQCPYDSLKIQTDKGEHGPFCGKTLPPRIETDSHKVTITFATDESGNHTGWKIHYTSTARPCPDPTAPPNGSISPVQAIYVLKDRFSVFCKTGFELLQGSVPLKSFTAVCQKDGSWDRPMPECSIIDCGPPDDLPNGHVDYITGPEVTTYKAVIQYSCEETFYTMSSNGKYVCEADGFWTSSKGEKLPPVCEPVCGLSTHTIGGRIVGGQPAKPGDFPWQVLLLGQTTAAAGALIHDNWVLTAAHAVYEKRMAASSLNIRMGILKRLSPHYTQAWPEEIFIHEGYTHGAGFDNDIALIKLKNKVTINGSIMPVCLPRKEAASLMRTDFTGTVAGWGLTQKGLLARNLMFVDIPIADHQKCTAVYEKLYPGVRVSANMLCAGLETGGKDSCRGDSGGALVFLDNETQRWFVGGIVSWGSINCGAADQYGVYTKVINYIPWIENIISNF

[3] = biological target: MASP-2 (CCP1-CCP2-SP) (Homo sapiens (Human), UniProt O00187); test: biochemical; details: for MASP-2 vs. thrombin selectivity: selectivity for MASP-2 inhibition versus thrombin
Sequence of MASP-2 (CCP1-CCP2-SP) (O00187 445-686): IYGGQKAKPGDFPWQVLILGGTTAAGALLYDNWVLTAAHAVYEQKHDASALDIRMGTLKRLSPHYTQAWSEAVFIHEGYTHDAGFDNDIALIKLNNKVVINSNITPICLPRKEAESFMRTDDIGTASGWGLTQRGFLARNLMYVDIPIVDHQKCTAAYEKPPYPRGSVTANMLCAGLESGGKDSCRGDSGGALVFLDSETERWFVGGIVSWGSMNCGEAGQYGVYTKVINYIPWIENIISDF

Structure (SMILES) | Ki ([1]; Thrombin Ki (μM)) | Ki [2] | Ki ([3]; read-out: MASP-2 Ki) | MASP-2 vs. thrombin selectivity [3] | Ki ([1]; read-out: Thrombin Ki) | Ki [3]
C[C@H](NC(=O)[C@H]1C[C@H](c2ccccc2)CN1)C(=O)NCc1cnc2[nH]cc(Cl)c2c1 [compound 1329, (2R,4R)—N—((S)-1-(((3-chloro-1H-pyrrolo[2,3-b]pyridin-5-yl)methyl)amino)-1-oxopropan-2-yl)-4-phenylpyrrolidine-2-carboxamide Dihydrochloride] | 0.5 to 2.5 µM | < 500 nM | < 500 nM | * (≥1.0 to <5.0-fold) |  | 
C[C@H](NC(=O)[C@@H](CCc1ccccc1)NCCc1cccc(O)c1)C(=O)NCc1ccc(C(=N)N)cc1 [compound 1330, (R)—N—((S)-1-((4-Carbamimidoylbenzyl)amino)-1-oxopropan-2-yl)-2-((3-hydroxyphenethyl)amino)-4-phenylbutanamide Di-trifluoroacetate salt] |  | < 500 nM | < 500 nM | *** (≥25 to <100-fold) | < 0.5 µM | 
N=C(N)c1ccc(CNC(=O)[C@H](Cc2cnc[nH]2)NC(=O)[C@H](N)CCc2ccccc2)cc1 [compound 1332, (R)-2-Amino-N—((S)-1-((4-carbamimidoylbenzyl)amino)-3-(1H-imidazol-5-yl)-1-oxopropan-2-yl)-4-phenylbutanamide Di-trifluoroacetate] |  | 2500 to 10000 nM |  |  | > 25 µM | 10000 to 25000 nM
Cc1cc(Cl)cc(CNC(=O)[C@H](C)NC(=O)[C@H]2C[C@H](c3ccccc3)CN2)c1 [compound 1333, (2R,4R)—N—((S)-1-((3-Chloro-5-methylbenzyl)amino)-1-oxopropan-2-yl)-4-phenylpyrrolidine-2-carboxamide Hydrochloride] |  | 10000 to 25000 nM |  |  | > 25 µM | 2500 to 10000 nM
N=C(N)c1ccc(CNC(=O)[C@H](CCC(N)=O)NC(=O)[C@H](N)CCc2ccccc2)cc1 [compound 1335, (S)-2-((R)-2-Amino-4-phenylbutanamido)-N-(4-carbamimidoylbenzyl)pentanediamide Di-trifluoroacetate] | 2.5 to 10 µM | < 500 nM | < 500 nM | *** (≥25 to <100-fold) |  | 
C[C@H](NC(=O)[C@H]1C[C@H](c2ccccc2)CN1)C(=O)NCc1cc(N)n[nH]1 [compound 1336, (2R,4R)—N—((S)-1-(((3-Amino-1H-pyrazol-5-yl)methyl)amino)-1-oxopropan-2-yl)-4-phenylpyrrolidine-2-carboxamide Dihydrochloride] |  | > 25000 nM |  |  | > 25 µM | 10000 to 25000 nM
Cc1nc(N)ccc1CNC(=O)[C@H](C)NC(=O)[C@H]1C[C@H](Cc2ccc3ccccc3c2)CN1 [compound 1338, (2R,4S)—N—((S)-1-(((6-Amino-2-methylpyridin-3-yl)methyl)amino)-1-oxopropan-2-yl)-4-(naphthalen-2-ylmethyl)pyrrolidine-2-carboxamide Dihydrochloride] |  | < 500 nM | < 500 nM | **** (≥100-fold) | > 25 µM | 
C[C@H](NC(=O)[C@@H](CCc1ccccc1)NCCc1ccccc1)C(=O)NCc1ccc(C(=N)N)cc1 [compound 1340, (R)—N—((S)-1-((4-Carbamimidoylbenzyl)amino)-1-oxopropan-2-yl)-2-(phenethylamino)-4-phenylbutanamide Dihydrochloride] |  | < 500 nM | < 500 nM | ** (≥5.0 to <25-fold) | < 0.5 µM | 
C[C@H](NC(=O)[C@H](N)CCc1ccccc1)C(=O)NCc1cc(Cl)ccc1-n1cncn1 [compound 1341, (R)-2-amino-N—((S)-1-((5-chloro-2-(1H-1,2,4-triazol-1-yl)benzyl)amino)-1-oxopropan-2-yl)-4-phenylbutanamide] | 0.5 to 2.5 µM | > 25000 nM |  | −− (<1.0-fold) |  | 10000 to 25000 nM
C[C@H](NC(=O)[C@H](N)CCc1ccccc1)C(=O)NCc1cccnc1N [compound 1346, (R)-2-Amino-N—((S)-1-(((2-aminopyridin-3-yl)methyl)amino)-1-oxopropan-2-yl)-4-phenylbutanamide Dihydrochloride] |  | > 25000 nM |  |  | > 25 µM | 10000 to 25000 nM
Cc1nc(N)ccc1CNC(=O)[C@H](C)NC(=O)[C@@H](CCc1ccccc1)NCCc1cccc(O)c1 [compound 1349, (R)—N—((S)-1-(((6-Amino-2-methylpyridin-3-yl)methyl)amino)-1-oxopropan-2-yl)-2-((3-hydroxyphenethyl)amino)-4-phenylbutanamide Dihydrochloride] |  | 2500 to 10000 nM |  | ** (≥5.0 to <25-fold) | > 25 µM | 500 to 2500 nM
Cc1nc(N)ccc1CNC(=O)[C@H](C)NC(=O)[C@H]1C[C@H](Cc2ccc(-c3ccccc3)cc2)CN1 [compound 1351, (2R,4S)-4-([1,1′-Biphenyl]-4-ylmethyl)-N-((S)-1-(((6-amino-2-methylpyridin-3-yl)methyl)amino)-1-oxopropan-2-yl)pyrrolidine-2-carboxamide Dihydrochloride] |  | < 500 nM | < 500 nM | **** (≥100-fold) | > 25 µM | 
Cc1nc(N)ccc1CNC(=O)[C@H](C)NC(=O)[C@@H]1C[C@H](Cc2ccccc2)CCN1 [compound 1354, (2S,4R)—N—((S)-1-(((6-Amino-2-methylpyridin-3-yl)methyl)amino)-1-oxopropan-2-yl)-4-benzylpiperidine-2-carboxamide Dihydrochloride] | 2.5 to 10 µM | 500 to 2500 nM | < 500 nM | *** (≥25 to <100-fold) |  | 
Cc1cc(Br)cc(CNC(=O)[C@H](C)NC(=O)[C@H](N)CCc2ccccc2)c1O [compound 1355, (R)-2-amino-N—((S)-1-((5-bromo-2-hydroxy-3-methylbenzyl)amino)-1-oxopropan-2-yl)-4-phenylbutanamide Trifluoroacetate salt] |  | 10000 to 25000 nM | < 500 nM |  | > 25 µM | 
C[C@H](NC(=O)[C@H]1C[C@H](Cc2ccc(-c3ccccc3)cc2)CN1)C(=O)NCc1cnc2[nH]cc(Cl)c2c1 [compound 1356, (2R,4S)-4-([1,1′-Biphenyl]-4-ylmethyl)-N-((S)-1-(((3-chloro-1H-pyrrolo[2,3-b]pyridin-5-yl)methyl)amino)-1-oxopropan-2-yl)pyrrolidine-2-carboxamide Di-trifluoroacetate salt] |  | < 500 nM | < 500 nM | **** (≥100-fold) | > 25 µM | 
Cc1nc(N)ccc1CNC(=O)[C@H](C)NC(=O)[C@H]1C[C@H](Cc2ccc(-c3cccnc3)cc2)CN1 [compound 1357, (2R,4S)—N—((S)-1-(((6-Amino-2-methylpyridin-3-yl)methyl)amino)-1-oxopropan-2-yl)-4-(4-(pyridin-3-yl)benzyl)pyrrolidine-2-carboxamide Di-trifluoroacetate salt] |  | < 500 nM | < 500 nM | **** (≥100-fold) | > 25 µM | 
C[C@H](NC(=O)[C@H]1C[C@H](c2ccccc2)CN1)C(=O)NCc1cc(Cl)cnc1N [compound 1358, (2R,4R)—N—((S)-1-(((2-Amino-5-chloropyridin-3-yl)methyl)amino)-1-oxopropan-2-yl)-4-phenylpyrrolidine-2-carboxamide Di-trifluoroacetate salt] |  | > 25000 nM |  |  | > 25 µM | 500 to 2500 nM
C[C@H](NC(=O)[C@H]1C[C@H](c2ccccc2)CN1)C(=O)NCc1ccc2[nH]cc(Cl)c2c1 [compound 1362, (2R,4R)—N—((S)-1-(((3-Chloro-1H-indol-5-yl)methyl)amino)-1-oxopropan-2-yl)-4-phenylpyrrolidine-2-carboxamide] | 0.5 to 2.5 µM | 500 to 2500 nM |  | * (≥1.0 to <5.0-fold) |  | 500 to 2500 nM
C[C@H](NC(=O)[C@H]1C[C@H](c2ccccc2)CN1)C(=O)NCc1cc(O)cc(Cl)c1 [compound 1364, (2R,4R)—N—((S)-1-((3-Chloro-5-hydroxybenzyl)amino)-1-oxopropan-2-yl)-4-phenylpyrrolidine-2-carboxamide Hydrochloride] |  | 10000 to 25000 nM |  |  | > 25 µM | 500 to 2500 nM
Cc1cc(Cl)cc(CNC(=O)[C@H](C)NC(=O)[C@H]2C[C@@H](c3ccccc3)CCN2)c1O [compound 1365, (2R,4S)—N—((S)-1-((5-Chloro-2-hydroxy-3-methylbenzyl)amino)-1-oxopropan-2-yl)-4-phenylpiperidine-2-carboxamide Hydrochloride] |  | < 500 nM | < 500 nM | **** (≥100-fold) | > 25 µM | 
C[C@H](NC(=O)[C@H]1C[C@H](c2ccccc2)CN1)C(=O)NCc1ccn2ccnc2c1 [compound 1366, (2R,4R)—N—((S)-1-((Imidazo[1,2-a]pyridin-7-ylmethyl)amino)-1-oxopropan-2-yl)-4-phenylpyrrolidine-2-carboxamide Dihydrochloride] |  | 2500 to 10000 nM |  |  | > 25 µM | 2500 to 10000 nM
Cc1nc(N)ccc1CNC(=O)[C@H](C)NC(=O)c1cc(Cc2ccccc2)n[nH]1 [compound 1367, (S)—N-(1-(((6-Amino-2-methylpyridin-3-yl)methyl)amino)-1-oxopropan-2-yl)-3-benzyl-1H-pyrazole-5-carboxamide] |  | 10000 to 25000 nM | < 500 nM |  | > 25 µM | 
CC(=O)Nc1ccc(CCN[C@H](CCc2ccccc2)C(=O)N[C@@H](C)C(=O)NCc2ccc(N)nc2C)cc1 [compound 1368, (R)-2-((4-Acetamidophenethyl)amino)-N-((S)-1-(((6-amino-2-methylpyridin-3-yl)methyl)amino)-1-oxopropan-2-yl)-4-phenylbutanamide Dihydrochloride] |  | 10000 to 25000 nM |  | ** (≥5.0 to <25-fold) | > 25 µM | 500 to 2500 nM
